Measured values: the NIST ThermoML archive (doi:10.1007/s10765-005-8590-7)
Numbers after ± are expanded uncertainties.

Assay: xn = mol fraction of the nth substance listed
Settings: Fluid (supercritical or subcritical phases), Constant-volume piezometry

N [ammonia] + O
Settings | mass density [kg/m3]
275.15 K, 5862 kPa, x1 = 0.0955 | 967.89 ± 0.22
275.15 K, 7362.2 kPa, x1 = 0.0513 | 984.54 ± 0.23
275.15 K, 8702.8 kPa, x1 = 0.064 | 979.9 ± 0.24
275.16 K, 16098 kPa, x1 = 0.047 | 989.39 ± 0.26
275.23 K, 5541.3 kPa, x1 = 0.0644 | 979.5 ± 0.23
276.15 K, 5893.5 kPa, x1 = 0.0999 | 970.55 ± 0.25
277.08 K, 8983.2 kPa, x1 = 0.1386 | 954.88 ± 0.23
277.14 K, 5409.4 kPa, x1 = 0.1086 | 963.03 ± 0.23
277.14 K, 9054.1 kPa, x1 = 0.064 | 979.8 ± 0.24
277.14 K, 16926 kPa, x1 = 0.0606 | 986.49 ± 0.26
277.15 K, 3335.7 kPa, x1 = 0.014 | 995.99 ± 0.23
277.15 K, 4008 kPa, x1 = 0.0302 | 990.84 ± 0.23
277.15 K, 5289 kPa, x1 = 0.1436 | 951.66 ± 0.22
277.15 K, 7604.3 kPa, x1 = 0.0513 | 984.44 ± 0.23
277.18 K, 953.2 kPa, x1 = 0.0591 | 975.15 ± 0.22
277.2 K, 5773.5 kPa, x1 = 0.0644 | 979.4 ± 0.23
277.21 K, 6487 kPa, x1 = 0.0955 | 967.76 ± 0.23
279.08 K, 6161.2 kPa, x1 = 0.0644 | 979.29 ± 0.23
279.11 K, 10157 kPa, x1 = 0.1386 | 954.73 ± 0.23
279.12 K, 6995.3 kPa, x1 = 0.0999 | 970.36 ± 0.25
279.12 K, 7195.5 kPa, x1 = 0.0955 | 967.64 ± 0.25
279.14 K, 3259.7 kPa, x1 = 0.0582 | 979.2 ± 0.22
279.15 K, 3348.5 kPa, x1 = 0.014 | 995.9 ± 0.23
279.15 K, 4150.8 kPa, x1 = 0.0302 | 990.74 ± 0.23
279.15 K, 6475.7 kPa, x1 = 0.1436 | 951.51 ± 0.22
279.15 K, 7945.5 kPa, x1 = 0.0513 | 984.33 ± 0.24
279.17 K, 9525.4 kPa, x1 = 0.064 | 979.68 ± 0.24
280.14 K, 6718.7 kPa, x1 = 0.1086 | 962.82 ± 0.23
281.08 K, 7983 kPa, x1 = 0.0955 | 967.51 ± 0.23
281.11 K, 11383 kPa, x1 = 0.1386 | 954.58 ± 0.23
281.13 K, 10065 kPa, x1 = 0.064 | 979.57 ± 0.24
281.14 K, 6677.8 kPa, x1 = 0.0644 | 979.17 ± 0.23
281.15 K, 3472.7 kPa, x1 = 0.014 | 995.8 ± 0.23
281.15 K, 4392.5 kPa, x1 = 0.0302 | 990.64 ± 0.23
281.15 K, 8371.2 kPa, x1 = 0.0513 | 984.22 ± 0.24
281.19 K, 10108 kPa, x1 = 0.064 | 979.56 ± 0.24
281.22 K, 1795.9 kPa, x1 = 0.0591 | 974.91 ± 0.22
282.15 K, 8409.8 kPa, x1 = 0.1436 | 951.28 ± 0.23
282.16 K, 8309.2 kPa, x1 = 0.0999 | 970.16 ± 0.29
282.8 K, 8732.9 kPa, x1 = 0.0955 | 967.39 ± 0.23
283.12 K, 4275.1 kPa, x1 = 0.0582 | 978.96 ± 0.23
283.13 K, 12686 kPa, x1 = 0.1386 | 954.43 ± 0.25
283.14 K, 8193.3 kPa, x1 = 0.1086 | 962.61 ± 0.23
283.15 K, 3692.3 kPa, x1 = 0.014 | 995.7 ± 0.23
283.15 K, 4731.8 kPa, x1 = 0.0302 | 990.53 ± 0.23
283.15 K, 8198.4 kPa, x1 = 0.1086 | 962.61 ± 0.23
283.15 K, 8879.5 kPa, x1 = 0.0513 | 984.1 ± 0.24
283.15 K, 10706 kPa, x1 = 0.064 | 979.44 ± 0.25
283.17 K, 7273.4 kPa, x1 = 0.0644 | 979.05 ± 0.24
285.09 K, 7901.4 kPa, x1 = 0.0644 | 978.93 ± 0.24
285.15 K, 4011.8 kPa, x1 = 0.014 | 995.59 ± 0.23
285.15 K, 5171.1 kPa, x1 = 0.0302 | 990.41 ± 0.23
285.15 K, 9527 kPa, x1 = 0.0513 | 983.98 ± 0.24
285.15 K, 10464 kPa, x1 = 0.1436 | 951.05 ± 0.24
285.15 K, 10466 kPa, x1 = 0.1436 | 951.05 ± 0.24
285.16 K, 11435 kPa, x1 = 0.064 | 979.32 ± 0.25
285.17 K, 2999.7 kPa, x1 = 0.0591 | 974.66 ± 0.23
285.17 K, 14062 kPa, x1 = 0.1436 | 954.28 ± 0.25
286.14 K, 9868.4 kPa, x1 = 0.1086 | 962.4 ± 0.24
287.06 K, 10858 kPa, x1 = 0.0955 | 967.09 ± 0.24
287.13 K, 5735.3 kPa, x1 = 0.0582 | 978.69 ± 0.23
287.13 K, 12206 kPa, x1 = 0.064 | 979.19 ± 0.25
287.15 K, 4434.3 kPa, x1 = 0.014 | 995.47 ± 0.24
287.15 K, 10223 kPa, x1 = 0.0513 | 983.85 ± 0.24
287.17 K, 8642.4 kPa, x1 = 0.0644 | 978.79 ± 0.24
288.13 K, 11389 kPa, x1 = 0.0999 | 969.74 ± 0.24
288.14 K, 11389 kPa, x1 = 0.0999 | 969.74 ± 0.24
288.15 K, 12628 kPa, x1 = 0.1436 | 950.81 ± 0.25
289.04 K, 4499.1 kPa, x1 = 0.0591 | 974.4 ± 0.23
289.14 K, 6552.7 kPa, x1 = 0.0582 | 978.56 ± 0.24
289.15 K, 4946.6 kPa, x1 = 0.014 | 995.35 ± 0.24
289.15 K, 6317.7 kPa, x1 = 0.0302 | 990.16 ± 0.24
289.15 K, 11020 kPa, x1 = 0.0513 | 983.72 ± 0.25
289.15 K, 11640 kPa, x1 = 0.1386 | 962.18 ± 0.26
289.15 K, 13114 kPa, x1 = 0.064 | 979.06 ± 0.26
289.21 K, 9475.8 kPa, x1 = 0.0644 | 978.66 ± 0.24
291.12 K, 10278 kPa, x1 = 0.0644 | 978.53 ± 0.25
291.13 K, 7445.3 kPa, x1 = 0.0582 | 978.41 ± 0.24
291.13 K, 13172 kPa, x1 = 0.0999 | 969.52 ± 0.28
291.15 K, 5561.2 kPa, x1 = 0.014 | 995.22 ± 0.24
291.15 K, 11884 kPa, x1 = 0.0513 | 983.58 ± 0.25
291.15 K, 14080 kPa, x1 = 0.064 | 978.92 ± 0.26
291.16 K, 13203 kPa, x1 = 0.0955 | 966.79 ± 0.28
292.14 K, 7407.7 kPa, x1 = 0.0302 | 989.96 ± 0.24
292.15 K, 7429.1 kPa, x1 = 0.0302 | 989.96 ± 0.24
293.12 K, 14421 kPa, x1 = 0.0955 | 966.65 ± 0.26
293.13 K, 11186 kPa, x1 = 0.0644 | 978.39 ± 0.24
293.14 K, 8423.6 kPa, x1 = 0.0582 | 978.27 ± 0.25
293.15 K, 6247.6 kPa, x1 = 0.014 | 995.09 ± 0.25
293.16 K, 15112 kPa, x1 = 0.064 | 978.78 ± 0.27
293.22 K, 6453.9 kPa, x1 = 0.0591 | 974.1 ± 0.24
294.15 K, 15125 kPa, x1 = 0.0999 | 969.3 ± 0.26
295.11 K, 8696.2 kPa, x1 = 0.0302 | 989.75 ± 0.25
295.12 K, 9437.2 kPa, x1 = 0.0582 | 978.12 ± 0.25
295.15 K, 7035 kPa, x1 = 0.014 | 994.95 ± 0.24
295.15 K, 12162 kPa, x1 = 0.0644 | 978.25 ± 0.25
295.15 K, 13851 kPa, x1 = 0.0513 | 983.31 ± 0.26
297.15 K, 7909.9 kPa, x1 = 0.014 | 994.81 ± 0.25
297.15 K, 10576 kPa, x1 = 0.0582 | 977.97 ± 0.26
297.21 K, 13180 kPa, x1 = 0.0644 | 978.11 ± 0.26
297.22 K, 8637.1 kPa, x1 = 0.0591 | 973.79 ± 0.25
298.16 K, 10232 kPa, x1 = 0.0302 | 989.53 ± 0.26
299.08 K, 11729 kPa, x1 = 0.0582 | 977.83 ± 0.26
299.15 K, 8841.2 kPa, x1 = 0.014 | 994.66 ± 0.26
299.19 K, 14184 kPa, x1 = 0.0644 | 977.97 ± 0.26
301.02 K, 10950 kPa, x1 = 0.0591 | 973.5 ± 0.26
301.11 K, 15142 kPa, x1 = 0.0644 | 977.84 ± 0.27
301.15 K, 9880.3 kPa, x1 = 0.014 | 994.51 ± 0.26
303.15 K, 10919 kPa, x1 = 0.014 | 994.37 ± 0.27
303.2 K, 14357 kPa, x1 = 0.0582 | 977.51 ± 0.27
305.11 K, 13746 kPa, x1 = 0.0591 | 973.17 ± 0.28
305.15 K, 12107 kPa, x1 = 0.014 | 994.21 ± 0.27
305.21 K, 15774 kPa, x1 = 0.0582 | 977.35 ± 0.28
309.15 K, 14684 kPa, x1 = 0.014 | 993.9 ± 0.28
